Earlier results on 2 compounds are cited in US20140004043A1, “CRYPTOPHANE DERIVATIVES AND METHODS OF USE THEREOF” (Georgetown Univeristy, priority 2010, published 2014).

Read-outs that look alike come from different tables or passages of the source.

For the data set the following is noted: cited from earlier work.

Regarding `COc1cc2c3cc1OCCOc1cc4c(cc1OC)Cc1cc5c(OC)cc1Cc1cc(c(OC)cc1C4)OCCOc1cc(c(cc1OC)C3)Cc1cc(OC)c(cc1C2)OCCO5` [A (or 222), (±)-cryptophane-A], the “Ka, association constant for xenon binding” value (TCE-d2, 278 K (footnote d)) is reported as 3300^d. For the same compound, the binding constant Ka of the xenon complex (organic solution, 278K) is 3900 M⁻¹.
On to `c1cc2c3cc1OCOc1ccc4c(c1)Cc1ccc5cc1Cc1ccc(cc1C4)OCOc1ccc(c(c1)Cc1ccc(cc1C2)OCO5)C3` (racemic) [Cryptophane 1, (±)-cryptophane-1,1,1], for which the “binding constant with xenon Ka” value (293 K in 1,1,2,2-tetrachloroethane-d2 (TCE-d2)) is ~10,000 M^−1. For the same compound, the Ka, association constant for xenon binding (TCE-d2, 293 K) was 10000 M⁻¹.
